Experiments:
[1] = tested on: human lung cancer cells (NCI-H460); experiment: Apoptosis test (Sub G1, propidium iodide, flow cytometry); assay type: cell-based
Method: Cancer cells as used in the experiment were human lung cancer cells (NCI-H460, Korean Cell Line Bank), human breast cancer cells (MDA-MB-231, American Type Culture Collection (ATCC)), human uterine cervical cancer cells (HeLa, Korean Cell Line Bank), and blood cancer cells (Jurkat, ATCC). These cancer cells were cultured in RPMI 1640 media containing 10% FBS, penicillin, and streptomycin (GIBCO BRL).
The apoptosis tests were carried out at human lung cancer cells, breast cancer cells, uterine cervical cancer cells, and blood cancer cells as follows:
Phytosphingosine or a derivative thereof was dissolved in DMSO. Samples of the resultant solution of different concentration levels (1, 2, 5, 10, 15, 20 μg/ml) were prepared. According to the following treatment schedule, phytosphingosine treated cancer cells were cultured, washed with PBS (phosphate buffered saline), and fixed with 70% ethanol. The fixed cells were again washed with PBS, suspended in PBS, and 1 mg/ml of RNase was added thereto. Then, DNA was stained with 50 μg/ml of propidium iodide fluorescent dye and the change in the Sub G1 was analyzed by flow cytometry (Becton DICKINSON). The Sub G1, a marker of apoptotic cell death, means DNA distribution lower than that in the G1 phase of cell cycle.
(1-1) In order to determine an anticancer effect of phytosphingosine, 5 ml of 10 μg/ml of phytosphingosine was added to respective dishes containing lung cancer cells, breast cancer cells, uterine cervical cancer cells, and blood cancer cells.
(1-2) In order to examine a correlation of an anticancer effect with the phytosphingosine concentration and post-treatment culture time, each 5 ml of 2, 5, 10, and 15 μg/ml of phytosphingosine was added to respective human uterine cervical cancer cell-containing dishes and human breast cancer cell-containing dishes. In addition, each 5 ml of 5, 10, 15, and 20 μg/ml of phytosphingosine was added to respective human lung cancer cell-containing dishes, and each 5 ml of 1, 5, 10, and 20 μg/ml of phytosphingosine was added to respective human blood cancer cell-containing dishes.
(1-3) An anticancer effect of phytosphingosine derivatives was determined in the same manner as mentioned in (1-1) and (1-2) except using 5 μg/ml of C4PS, C6PS, C8PS, and C12PS.

[2] = tested on: human uterine cervical cancer cells (HeLa); experiment: as above; assay type: cell-based
Method: (§1) Cancer cells as used in the experiment were human lung cancer cells (NCI-H460, Korean Cell Line Bank), human breast cancer cells (MDA-MB-231, American Type Culture Collection (ATCC)), human uterine cervical cancer cells (HeLa, Korean Cell Line Bank), and blood cancer cells (Jurkat, ATCC). These cancer cells were cultured in RPMI 1640 media containing 10% FBS, penicillin, and streptomycin (GIBCO BRL). The apoptosis tests were carried out at human lung cancer cells, breast cancer cells, uterine cervical cancer cells, and blood cancer cells as follows: Phytosphingosine or a derivative thereof was dissolved in DMSO. Samples of the resultant solution of different concentration levels (1, 2, 5, 10, 15, 20 μg/ml) were prepared. According to the following treatment schedule, phytosphingosine treated cancer cells were cultured, washed with PBS (phosphate buffered saline), and fixed with 70% ethanol. The fixed cells were again washed with PBS, suspended in PBS, and 1 mg/ml of RNase was added thereto. Then, DNA was stained with 50 μg/ml of propidium iodide fluorescent dye and the change in the Sub G1 was analyzed by flow cytometry (Becton DICKINSON). The Sub G1, a marker of apoptotic cell death, means DNA distribution lower than that in the G1 phase of cell cycle. (1-1) In order to determine an anticancer effect of phytosphingosine, 5 ml of 10 μg/ml of phytosphingosine was added to respective dishes containing lung cancer cells, breast cancer cells, uterine cervical cancer cells, and blood cancer cells. (1-2) In order to examine a correlation of an anticancer effect with the phytosphingosine concentration and post-treatment culture time, each 5 ml of 2, 5, 10, and 15 μg/ml of phytosphingosine was added to respective human uterine cervical cancer cell-containing dishes and human breast cancer cell-containing dishes. In addition, each 5 ml of 5, 10, 15, and 20 μg/ml of phytosphingosine was added to respective human lung cancer cell-containing dishes, and each 5 ml of 1, 5, 10, and 20 μg/ml of phytosphingosine was added to respective human blood cancer cell-containing dishes.

[3] = tested on: blood cancer cells (Jurkat); experiment: as above; assay type: cell-based, human
Method: as §1

human blood cancer cells = experiment: Analysis of mitochondrial membrane potential and cytochrome c release; assay type: cell-based; details: 5 and 10 μg/ml phytosphingosine
Method: Human lung cancer cells and blood cancer cells were cultured under the same condition as in the apoptosis test and were treated with 10 ml of phytosphingosine (10 μg/ml of phytosphingosine for lung cancer cells, and 5 μg/ml and 10 μg/ml of phytosphingosine for blood cancer cells). Then, the analysis of mitochondrial membrane potential and western blotting was carried out. Mitochondria were stained with 30 nM of a specific DioC6(3) dye (Calbiochem) for 30 minutes and culture media were removed. Then, lung cancer cells were twice washed with PBS and the membrane potential was analyzed by flow cytometry.

human lung cancer cells = experiment: Colony formation test in combination with radiation; assay type: cell-based; details: FIG. 12
Method: Colony formation tests were carried out in human lung cancer cells, breast cancer cells, and uterine cervical cancer cells as follows:
Respective sphingosine, phytosphingosine, C6PS, and C8PS were dissolved ethanol to produce specimens. About 600 cells (for each cancer) were plated in a dish with a diameter of 60 mm and incubated in a CO2 incubator at 37° C. for a day. Then, the cancer cells were treated with the specimens in combination with radiation and were continuously cultured. When suitable colonies were formed, the cancer cells were fixed with a fixing solution (methanol/acetic acid=3:1) and stained with trypan blue. Then, the number of the colonies was counted and the results were evaluated in a comparative manner.

Acute oral toxicity test = details: rat, in vivo, rats
Method: (§2) Royal Gist-Brocades N.V. (Netherlands) was asked to perform tests for acute oral toxicity and dermal irritation, and Ames tests of phytosphingosine and derivatives thereof.
In the acute oral toxicity test, the LD50 (the […]) value amounted to 2,000 mg/kg or more in rats.

[4] = Oral or transdermal toxicity tests; details: rat, in vivo, other: oral or transdermal, rats
Dermal irritation test = assay type: in vivo; details: rabbits
From the text: as §2

Ames test = experiment: Ames test
From the text: as §2

[5] = 10 μg/ml phytosphingosine, test (1-1), FIG. 1

SMILES: CCCCCCCCCCCCCC[C@@H](O)[C@@H](O)[C@@H](N)CO [phytosphingosine]
- apoptosis ([1]; 10 μg/ml or more, culture of 6 hours or more, FIG. 5): 50%
- apoptotic rate [1, 5]: ≥ 50%
- apoptosis ([1]; 10 μg/ml, at 3-6 hours after treatment): ≥ 50%
- anticancer effect compared to untreated cancer cells [2, 5]: excellent anticancer effects
- apoptosis ([2]; 15 μg/ml or more, culture of 12 hours or more, FIG. 3): ≥ 50%
- apoptosis ([2]; 15 μg/ml, at 12-18 hours after treatment): 50%
- apoptosis ([3]; 5 μg/ml or more, culture of 6 hours or more, FIG. 6): ≥ 50%
- apoptosis ([3]; 5 μg/ml, at 3-6 hours after treatment): ≥ 50%
- apoptosis ([3]; 10 μg/ml or more, culture of 3 hours or more, FIG. 6): ≥ 50%
- apoptotic rate [3, 5]: ≥ 50%
- mitochondrial membrane potential (human blood cancer cells): decreased
- release of cytochrome c from mitochondria (human blood cancer cells): increased
- reduction of tumor growth, concurrent treatment vs radiation, sphingosine or PS alone (human lung cancer cells; PS in combination with radiation): ≥ 30%
- sensitizer enhancement ratio (SER) (human lung cancer cells; in combination with radiation): 1.21
- LD50 (Acute oral toxicity test): ≥ 2000 mg/kg
- LD50 [4]: ≥ 2000 mg/kg
- dermal irritation (Dermal irritation test): did not cause dermal damages
- mutagenicity (Ames test) (Ames test): do not cause mutation

— patent US20090176888A1, “COMPOSITION COMPRISING PHYTOSPHINGOSINE OR DERIVATIVE THEREOF” (KOREA INSTITUTE OF RADIOLOGICAL & MEDICAL SCIENCES, priority 2003, published 2009)
